Assay results from paper PMC8290231 (Cancer Medicine, 2021).

Key:
A549 = experiment: CCK-8 cell proliferation assay; assay type: cell-based; settings: Homo sapiens, A549, 72 h, negative control; CCK-8, 72 h; read-out: antiproliferative IC50, A549
Method: (§1) The base medium for MDA‐MB‐453 cell line is DMEM medium (CORNING, USA). All other cell lines were cultured in RPMI‐1640 medium supplemented with 10% FBS, 100 U/ml of penicillin, and […] of streptomycin in 5% CO2 at 37℃. The cells in the logarithmic growth phase were used for the experiments.
(§2) Cells were seeded in 96‐well plate in complete medium (1000–6000 cells/well) and cultured for overnight. Then the cells were exposed to gradient concentrations (0.0005–10 μM) of compounds. Cell proliferation was analyzed by Cell Counting Kit 8 (CK04, Dojindo Laboratories, Japan) after co‐incubation for a further 72 h. IC50 values were calculated by fitting of concentration–response curves using GraphPad Prism 8.01 software. Each assay was repeated at least three times.
(§3) The expression and activation levels of FGFR1–4 in these cells were determined via western blot experiments (Figure S1).

[1] = Mortality and body weight in xenograft studies; assay type: in vivo, CB17‐SCID mice; settings: 10 or 20 mg/kg q2d, oral gavage, xenograft mice
Text: (§4) All animal studies were approved by the Institutional Animal Care and Use Committee. Male CB17‐SCID mice were purchased from Vital River Laboratory Animal Technology Inc. (Beijing, China). The right flanks of SCID mice were subcutaneously injected with 2 x 10^6 Ba/F3‐FGFR1, Ba/F3‐FGFR1‐V561F, or Ba/F3‐FGFR1‐V561M cells, respectively. When the average tumor volume reached 100–200 mm^3, mice bearing tumor were randomly divided into groups and treated with compounds or vehicle. All the compounds were suspended in 0.5% CMC‐Na aqueous solution. […] The body weight and tumor volume of animals were measured once every 2 days. Tumor volumes were calculated as L×W×W/2, where L and W are the length and width of the tumor, respectively. At the experiment terminal, tumor tissues were dissected, paraffin embedded, and sectioned for hematoxylin and eosin (H&E), immunohistochemistry (IHC), and TUNEL analysis.

FGFR3 = FGFR3 (Homo sapiens, UniProt P22607); experiment: KINOMEscan binding affinity assay
A204 = experiment: CCK-8 cell proliferation assay; assay type: cell-based; settings: Homo sapiens, A204; FGFR1 amplification; CCK-8, 72 h; read-out: antiproliferative IC50, A204
Method: as §1, §2, §3

FGFR3‐V555 M = target: T1, FGFR3‐V555 M (Homo sapiens, UniProt P22607, V555M); experiment: KINOMEscan binding affinity assay
T1 construct: purchased KINOMEscan™ (commercial assay)

FGFR3‐G697C = target: T2, FGFR3‐G697C (Homo sapiens, UniProt P22607, G697C); experiment: KINOMEscan binding affinity assay
T2 construct: purchased KINOMEscan™ (commercial assay)

[2] = test system: Ba/F3‐FGFR1‐V561M xenograft; experiment: Mouse xenograft tumor model; assay type: in vivo, CB17‐SCID mice; settings: 20 mg/kg, p.o., q2d (b60 prints Bid)
Text: as §4

FGFR2 [3] = target: T3, FGFR2 (Homo sapiens, UniProt P21802); experiment: KINOMEscan binding affinity assay
[4] = test system: FGFR1 in all Ba/F3 stable cells; experiment: Western blot of total FGFR1 protein; assay type: cell-based; settings: 4 h
Method: (§5) Cells were treated with different concentrations of compound or DMSO for indicated time. Then, cells were lysed with 1 × SDS sample lysis buffer (recommended by CST). […] After blocking with 5% BSA in TBST solution (0.5% Tween‐20) at room temperature for 4 hrs, the membranes were incubated with the corresponding primary antibody (1:2000–1:200) at 4℃ overnight. After washing with TBST for 3–5 times, the HRP‐conjugated secondary antibodies were incubated for 2 hrs. The protein signals were detected with Amersham Imager 600 system (GE, Boston, MA, USA) using an ECL western blotting detection kit (Thermo Fisher Scientific, Waltham, MA, USA).
However, its effects on FGFR1 downstream signal pathway in A549 cells were very weak as a negative control.

FGFR1 = target: T4, FGFR1 (Homo sapiens, UniProt P11362); experiment: FRET-based Z′-Lyte kinase assay; assay type: biochemical
T4 construct: purchased Invitrogen (Waltham, MA, USA)
Method: FGFR1 and the Z′‐Lyte kinase assay kit were purchased from Invitrogen (Waltham, MA, USA) and the assays were performed according to the manufacturer's instructions as described previously.[27]

pAKT in SNU‐16 = experiment: Western blot of pAKT; assay type: cell-based; settings: SNU‐16, FGFR2 overexpressed, 3.7 to 300 nM
Method: as §5

pAKT in NCI‐H716 = experiment: Western blot of pAKT; assay type: cell-based; settings: NCI‐H716, FGFR2 overexpressed, 3.7 to 300 nM
Method: as §5

FGFR2 [5] = target: T3, FGFR2; experiment: FRET-based Z′-Lyte kinase assay; assay type: biochemical
FGFR1‐V561F = experiment: Cellular thermal shift assay (CETSA) in Ba/F3‐FGFR1‐V561F cells; assay type: binding; settings: 100 nM, 38.0 to 57.8℃
Method: Pairs consisting of one experimental aliquot and one DMSO aliquot were heated from 38.0 to 57.8℃ for 3 min. Then, the samples were exposed to liquid nitrogen for 10 min, and then placed in a water bath at 37℃ for 10 min. After three freeze–thaw cycles, cell lysates were centrifuged at 12000 rpm at 4℃ for 10 min, and then boiled for 15 min. The soluble supernatant was used for WB analysis.
Drug‐treated cells were heated at gradient temperature from 38℃ to 57.8℃ for 3 min and then lysed, centrifuged to separate the soluble fractions from precipitates. The soluble fractions were analyzed by immunoblotting. Relative band intensities were plotted as a function of temperature followed a sigmoidal trend.

FGFR1–FGFR3 cell lines = experiment: CCK-8 proliferation, cancer cells harboring FGFR aberrations (summary range); assay type: cell-based; settings: range over cell lines of Table 2; read-out: antiproliferative IC50 values, FGFR1–FGFR3 cell lines
Method: as §2, §3

FGFR3‐K650E = target: T5, FGFR3‐K650E (Homo sapiens, UniProt P22607, K650E); experiment: KINOMEscan binding affinity assay
T5 construct: purchased KINOMEscan™ (commercial assay)

Ba/F3‐FGFR1 = experiment: Cell cycle analysis by flow cytometry (propidium iodide); assay type: cell-based; settings: Ba/F3‐FGFR1, 100 nM, 24 h
Method: About 6 × 10^5 cells were re‐suspended in 150 μl of BD Cytofix/Cytoperm buffer solution I for 10 min at room temperature. The cell suspensions were added with BD Cytofix/Cytoperm buffer solution II and incubated with another 10 min at room temperature, and then incubated with 200 μl of propidium iodide buffer (0.1 mg/ml) in the dark for 10 min at 4℃. Assays were performed with a Guava easyCyte flow cytometer (Merck, USA).

T3 sequence (P21802 22-821): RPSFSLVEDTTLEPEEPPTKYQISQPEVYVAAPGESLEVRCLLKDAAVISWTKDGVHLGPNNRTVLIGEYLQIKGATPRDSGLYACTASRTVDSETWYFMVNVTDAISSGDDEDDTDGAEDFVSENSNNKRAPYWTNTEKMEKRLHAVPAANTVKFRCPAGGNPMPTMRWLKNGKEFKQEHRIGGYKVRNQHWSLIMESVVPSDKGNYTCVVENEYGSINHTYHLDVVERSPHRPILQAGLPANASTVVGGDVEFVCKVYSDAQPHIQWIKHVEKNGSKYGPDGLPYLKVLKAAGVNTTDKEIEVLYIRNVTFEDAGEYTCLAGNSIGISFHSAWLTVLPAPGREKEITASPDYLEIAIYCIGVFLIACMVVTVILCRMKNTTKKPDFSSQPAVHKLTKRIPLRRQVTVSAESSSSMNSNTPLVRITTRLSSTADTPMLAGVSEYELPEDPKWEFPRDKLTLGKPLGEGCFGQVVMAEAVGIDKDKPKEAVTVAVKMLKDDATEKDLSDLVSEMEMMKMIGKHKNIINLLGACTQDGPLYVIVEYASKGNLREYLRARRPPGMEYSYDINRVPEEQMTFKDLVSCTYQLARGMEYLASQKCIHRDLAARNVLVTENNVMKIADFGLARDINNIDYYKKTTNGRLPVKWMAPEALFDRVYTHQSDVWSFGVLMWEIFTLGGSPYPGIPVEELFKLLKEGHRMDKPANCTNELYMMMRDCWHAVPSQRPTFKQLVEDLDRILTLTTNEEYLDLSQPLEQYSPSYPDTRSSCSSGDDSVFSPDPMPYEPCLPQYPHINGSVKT
T4 sequence (P11362 22-822): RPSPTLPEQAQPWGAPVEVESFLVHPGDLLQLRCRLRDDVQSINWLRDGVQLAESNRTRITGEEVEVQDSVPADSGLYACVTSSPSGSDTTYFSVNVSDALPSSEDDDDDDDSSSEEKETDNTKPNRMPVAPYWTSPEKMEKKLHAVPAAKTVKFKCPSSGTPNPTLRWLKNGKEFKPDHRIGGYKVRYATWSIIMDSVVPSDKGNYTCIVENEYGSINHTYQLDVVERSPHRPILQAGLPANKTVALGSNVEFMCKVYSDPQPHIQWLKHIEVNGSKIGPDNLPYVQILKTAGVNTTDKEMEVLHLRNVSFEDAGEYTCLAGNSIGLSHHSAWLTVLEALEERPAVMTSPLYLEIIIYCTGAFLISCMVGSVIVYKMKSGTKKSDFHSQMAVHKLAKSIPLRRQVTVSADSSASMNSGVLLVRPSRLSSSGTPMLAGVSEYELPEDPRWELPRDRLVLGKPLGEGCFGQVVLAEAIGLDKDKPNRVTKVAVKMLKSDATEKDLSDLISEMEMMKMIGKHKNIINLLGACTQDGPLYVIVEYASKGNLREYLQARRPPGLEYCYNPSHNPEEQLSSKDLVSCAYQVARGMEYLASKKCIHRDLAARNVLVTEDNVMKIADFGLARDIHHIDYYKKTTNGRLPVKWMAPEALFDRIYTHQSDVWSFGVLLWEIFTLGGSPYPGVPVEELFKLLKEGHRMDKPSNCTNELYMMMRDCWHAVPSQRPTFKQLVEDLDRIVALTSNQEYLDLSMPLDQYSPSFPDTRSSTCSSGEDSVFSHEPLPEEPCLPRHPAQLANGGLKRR
T1 sequence (P22607 23-806 V555M): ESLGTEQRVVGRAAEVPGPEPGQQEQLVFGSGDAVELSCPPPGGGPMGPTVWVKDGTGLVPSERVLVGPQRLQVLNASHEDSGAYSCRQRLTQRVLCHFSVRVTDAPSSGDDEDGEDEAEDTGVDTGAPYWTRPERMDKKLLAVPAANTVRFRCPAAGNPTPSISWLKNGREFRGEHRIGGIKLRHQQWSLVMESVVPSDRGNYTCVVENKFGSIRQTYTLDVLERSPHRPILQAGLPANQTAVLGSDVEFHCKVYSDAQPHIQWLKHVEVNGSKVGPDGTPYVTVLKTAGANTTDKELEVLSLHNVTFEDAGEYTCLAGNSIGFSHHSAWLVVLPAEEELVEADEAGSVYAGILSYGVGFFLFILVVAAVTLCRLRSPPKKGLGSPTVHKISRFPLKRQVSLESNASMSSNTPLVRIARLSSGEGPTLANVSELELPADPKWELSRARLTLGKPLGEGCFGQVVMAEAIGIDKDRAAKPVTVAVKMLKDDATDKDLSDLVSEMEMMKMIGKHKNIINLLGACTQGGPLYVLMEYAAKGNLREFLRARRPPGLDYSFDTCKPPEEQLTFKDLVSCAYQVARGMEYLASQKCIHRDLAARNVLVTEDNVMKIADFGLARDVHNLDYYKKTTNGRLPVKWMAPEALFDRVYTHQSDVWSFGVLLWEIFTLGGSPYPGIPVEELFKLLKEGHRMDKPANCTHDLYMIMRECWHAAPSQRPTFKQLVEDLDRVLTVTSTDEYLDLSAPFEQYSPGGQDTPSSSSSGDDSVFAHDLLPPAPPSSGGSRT
FGFR3, sequence (P22607 23-806): as the sequence (P22607 23-806 V555M) above, with M533V counted along it
T5 sequence (P22607 23-806 K650E): as the sequence (P22607 23-806 V555M) above, with M533V, K628E counted along it
T2 sequence (P22607 23-806 G697C): as the sequence (P22607 23-806 V555M) above, with M533V, G675C counted along it

Question: With CCN1CCN(c2ccc(Nc3cc(N(C)C(=O)Nc4c(Cl)c(OC)cc(OC)c4Cl)ncn3)cc2)CC1 [BGJ398] as the compound, how does the IC50 (A549) read?
Answer: 8.73 ± 1.93 µM

Question: With Cc1ccc(C(=O)Nc2ccc(CN3CCN(C)CC3)c(C(F)(F)F)c2)cc1C#Cc1cnc2[nH]ncc2c1 [GZD824] as the compound, how does the “mortality and body weight during experiment” value [1] read?
Answer: no mortality or significant loss of body weight

Question: What about the Kd (FGFR3) of the same compound?
Answer: 17 ± 1.4 nM

Question: What about the IC50 (A204) of the same compound?
Answer: 0.0244 ± 0.0062 µM

Question: What about the Kd (FGFR3‐V555 M) of the same compound?
Answer: 0.0195 ± 0.0049 µM

Question: And the Kd (FGFR3‐G697C)?
Answer: 0.0395 ± 0.0078 µM

Question: And the “tumor growth inhibition (TGI)” value [2]?
Answer: 49.8%

Question: What about the Kd (FGFR2 [3]) of the same compound?
Answer: 15.5 ± 3.5 nM

Question: What about the “dose showing obvious degradation of FGFR1” value [4] of the same compound?
Answer: ≥ 33.3 nM

Question: And the IC50 (FGFR1)?
Answer: 4.14 ± 0.96 nM

Question: What about the EC50 (FGFR1; Figure 1B curve fit) of the same compound?
Answer: 0.00482 µM

Question: What about the “effect on pAKT” value (pAKT in SNU‐16) of the same compound?
Answer: strongly inhibit

Question: And the “effect on pAKT” value (pAKT in NCI‐H716)?
Answer: strongly inhibit

Question: What about the IC50 (FGFR2 [5]) of the same compound?
Answer: 2.77 ± 0.082 nM

Question: What about the EC50 (FGFR2 [5]; Figure 1B curve fit) of the same compound?
Answer: 0.00272 µM

Question: And the “thermal stability of FGFR1‐V561F protein (CETSA)” value (FGFR1‐V561F)?
Answer: significantly enhanced

Question: And the IC50 (FGFR1–FGFR3 cell lines)?
Answer: 0.004 to 0.091 µM

Question: What about the Kd (FGFR3‐K650E) of the same compound?
Answer: 0.011 µM

Question: And the G0/G1 phase (Ba/F3‐FGFR1)?
Answer: 70.88%
